Laboratory results from patent publication US11306111B2, “Organophosphate derivatives” (January Therapeutics, Inc., priority 2017, dated 2022).
Structures can show the parent of a compound that is named as a salt.

Tested on: BxPC-3 cells
Assay: Cellular proliferation assay in BxPC-3 cells (Cell-Titer Glo, 120 h)
Assay type: cell-based
Settings: Homo sapiens, 120 h incubation, Cell-Titer Glo luminescence
Experimental: Compounds are tested for their ability to impair cancer cell proliferation and/or induce cell death. For cellular proliferation studies, cultured cells are treated with the test compound for 24-120 hours. After compound treatment, cell proliferation is assessed by using methods including, but not limited to, Cell-Titer-Glo® (Promega), Alamar Blue, LIVE/DEAD® (ThermoFisher), BrdU incorporation, and live-cell imaging.
The cancer lines used include, but are not limited to, PANC-1, MiaPaCa-2, BxPC-3 (pancreatic cancer), RT112 (bladder cancer), MCF-7 (breast cancer), and A549 (non-small cell lung cancer). Gemcitabine Hydrochloride serves as a control for activity.
Protocol for the Cellular Proliferation Assay in BxPC-3 Cells
BxPC-3 (pancreatic adenocarcinoma) cell line was purchased from the American Type Culture Collection (Catalog #CRL-1687) and grown in RPMI-1640 medium (e.g. Corning #10-040-CV) with 10% Heat Inactivated Fetal Calf Serum at 37° C. and 5% CO2 (as recommended by the ATCC).
Cultures were grown in […] plates to 80% confluence, and cells were trypsinized to a single-cell suspension. Cells were then resuspended in growth medium to a density of […]. They were then plated into 96-well assay plates (Corning #3917) in a volume of 100 ul/well (2,500 cells/well). Cells were allowed to adhere to plates for 24 h at 37° C. and 5% CO2). Compounds were then added to the wells using an […] serial dilution scheme (over 9 dilutions, generally ranging from 30 μM-30 pM), and the cells were incubated for an additional 120 hours. After 120 h, 90 ul of Cell-Titer Glo reagent (Promega #G7572) was added, and the plates were read using a luminescence counter (e.g., BioTek Synergy HTX at 100 ms read time).

EC50 [nM]	SMILES
< 1	CCCCCCCCCCCCC(=O)O[C@@H]1[C@@H](COP(=O)(OCOC(=O)C(C)(C)C)OCOC(=O)C(C)(C)C)O[C@@H](n2ccc(N)nc2=O)C1(F)F [Compound 33]
1000 to 25000	CCCCCCCCCCCCCCCCCCCCCCOP1(=O)OC[C@H]2O[C@@H](n3ccc(N)nc3=O)C(F)(F)[C@@H]2O1 (single isomer, unassigned) [Compound 46A]
< 1000	CCCCCCCOP(=O)(OCCCCCCC)OC[C@H]1O[C@@H](n2ccc(N)nc2=O)C(F)(F)[C@@H]1OC(=O)CCCCCCC [Compound 19, (2R,3R,5R)-5-(4-amino-2-oxopyrimidin-1(2H)-yl)-2-(((bis(heptyloxy)phosphoryl)oxy)methyl)-4,4-difluorotetrahydrofuran-3-yl octanoate]
1 to 100	CCCCCCCCC(=O)O[C@@H]1[C@@H](COP(=O)(OCCCCCC)OCCCCCC)O[C@@H](n2ccc(N)nc2=O)C1(F)F [Compound 1, (2R,3R,5R)-5-(4-amino-2-oxopyrimidin-1(2H)-yl)-2-(((bis(hexyloxy)phosphoryl)oxy)methyl)-4,4-difluorotetrahydrofuran-3-yl nonanoate]
< 1	CCCCCCCCCCCCCCCCCCC(=O)O[C@@H]1[C@@H](COP(=O)(OCOC(=O)C(C)(C)C)OCOC(=O)C(C)(C)C)O[C@@H](n2ccc(N)nc2=O)C1(F)F [Compound 36]
1000 to 25000	CCCOP(=O)(OCCC)OC[C@H]1O[C@@H](n2ccc(N)nc2=O)C(F)(F)[C@@H]1OC(=O)CCC [Compound 17, (2R,3R,5R)-5-(4-amino-2-oxopyrimidin-1(2H)-(((dipropoxyphosphoryl)oxy)methyl)-4,4-difluorotetrahydrofuran-3-yl butyrate]
< 1	CCCCCCCCCCCCCCC(=O)O[C@@H]1[C@@H](COP(=O)(OCOC(=O)C(C)(C)C)OCOC(=O)C(C)(C)C)O[C@@H](n2ccc(N)nc2=O)C1(F)F [Compound 34]
1 to 100	CCCCCCCCCCCCCCCCCCOP1(=O)OC[C@H]2O[C@@H](n3ccc(N)nc3=O)C(F)(F)[C@@H]2O1 (single isomer, unassigned) [Compound 44A]
< 1	CCCCCCCCCCOP1(=O)OC[C@H]2O[C@@H](n3ccc(N)nc3=O)C(F)(F)[C@@H]2O1 (single isomer, unassigned) [Compound 42A]
1000 to 25000	CCCCCCCCCCCCOP(=O)(OCCCCCCCCCCCC)OC[C@H]1O[C@@H](n2ccc(N)nc2=O)C(F)(F)[C@@H]1OC(=O)CCCCCCCCCCCC [Compound 22, (2R,3R,5R)-5-(4-amino-2-oxopyrimidin-1(2H)-yl)-2-(((bis(dodecyloxy)phosphoryl)oxy)methyl)-4,4-difluorotetrahydrofuran-3-yl tridecanoate]
1 to 100	Nc1ccn([C@@H]2O[C@H](CO)[C@@H](O)C2(F)F)c(=O)n1 [Gemcitabine Hydrochloride, 2′,2′-difluoro-2′-deoxycytidine, reference compound]
< 1000	CCCCCOP(=O)(OCCCCC)OC[C@H]1O[C@@H](n2ccc(N)nc2=O)C(F)(F)[C@@H]1OC(=O)CCCCC [Compound 18, (2R,3R,5R)-5-(4-amino-2-oxopyrimidin-1(2H)-yl)-2-(((bis(pentyloxy)phosphoryl)oxy)methyl)-4,4-difluorotetrahydrofuran-3-yl hexanoate]
1000 to 25000	CCCCCCCCCCOP(=O)(OCCCCCCCCCC)OC[C@H]1O[C@@H](n2ccc(N)nc2=O)C(F)(F)[C@@H]1OC(=O)CCCCCCCCCC [Compound 21, (2R,3R,5R)-5-(4-amino-2-oxopyrimidin-1(2H)-yl)-2-(((bis(decyloxy)phosphoryl)oxy)methyl)-4,4-difluorotetrahydrofuran-3-yl undecanoate]
1 to 100	CCCCCCCCCCCCCCCCOP1(=O)OC[C@H]2O[C@@H](n3ccc(N)nc3=O)C(F)(F)[C@@H]2O1 (single isomer, unassigned) [Compound 43A]
< 1	CCCCCCCCC(=O)O[C@@H]1[C@@H](COP(=O)(OCOC(=O)C(C)(C)C)OCOC(=O)C(C)(C)C)O[C@@H](n2ccc(N)nc2=O)C1(F)F [Compound 3]
< 1000	CC(C)OP(=O)(OC[C@H]1O[C@@H](n2ccc(N)nc2=O)C(F)(F)[C@@H]1OC(=O)C(C)C)OC(C)C [Compound 16, (2R,3R,5R)-5-(4-amino-2-oxopyrimidin-1(2H)-(((diisopropoxyphosphoryl)oxy)methyl)-4,4-difluorotetrahydrofuran-3-yl isobutyrate]
< 1	CCCCCCCCCCCCCCCCC(=O)O[C@@H]1[C@@H](COP(=O)(OCOC(=O)C(C)(C)C)OCOC(=O)C(C)(C)C)O[C@@H](n2ccc(N)nc2=O)C1(F)F [Compound 35]
1000 to 25000	CCCCCCCCCCCCCCCCC(=O)O[C@@H]1[C@@H](COP(=O)(OCCCCCCCC)OCCCCCCCC)O[C@@H](n2ccc(N)nc2=O)C1(F)F [Compound 20, (2R,3R,5R)-5-(4-amino-2-oxopyrimidin-1(2H)-yl)-2-(((bis(octyloxy)phosphoryl)oxy)methyl)-4,4-difluorotetrahydrofuran-3-yl heptadecanoate]
1000 to 25000	CCCCCCCCCCCCCCOP(=O)(OCCCCCCCCCCCCCC)OC[C@H]1O[C@@H](n2ccc(N)nc2=O)C(F)(F)[C@@H]1OC(=O)CCCCCCCCCCCCCC [Compound 23, (2R,3R,5R)-5-(4-amino-2-oxopyrimidin-1(2H)-yl)-2-(((bis(tetradecyloxy)phosphoryl)oxy)methyl)-4,4-difluorotetrahydrofuran-3-yl pentadecanoate]
< 1000	CCCCCCCCCCCCCCCCCCCCOP1(=O)OC[C@H]2O[C@@H](n3ccc(N)nc3=O)C(F)(F)[C@@H]2O1 (single isomer, unassigned) [Compound 45A]
1000 to 25000	Nc1ccn([C@@H]2O[C@H](COP(=O)(OC3CCCCC3)OC3CCCCC3)[C@@H](OC(=O)C3CCCCC3)C2(F)F)c(=O)n1 [Compound 24, (2R,3R,5R)-5-(4-amino-2-oxopyrimidin-1(2H)-(((bis(cyclohexyloxy)phosphoryl)oxy)methyl)-4,4-difluorotetrahydrofuran-3-yl cyclohexanecarboxylate]

SMILES	EC50 [nM]
CCCCCCCCC(=O)O[C@@H]1[C@@H](COP2(=O)OCc3ccccc3O2)O[C@@H](n2ccc(N)nc2=O)C1(F)F (stereo partly drawn) [Compound 2, (2R,3R,5R)-5-(4-amino-2-oxopyrimidin-1(2H)-yl)-4,4-difluoro-2-(((2-oxido-4H-benzo[d][1,3,2]dioxaphosphinin-2-yl)oxy)methyl)tetrahydrofuran-3-yl nonanoate]	< 1
CCCCCCCCCCCCCCC(=O)O[C@@H]1[C@@H](COP2(=O)OCc3ccccc3O2)O[C@@H](n2ccc(N)nc2=O)C1(F)F (stereo partly drawn) [Compound 29, (2R,3R,5R)-5-(4-amino-2-oxopyrimidin-1(2H)-yl)-4,4-difluoro-2-(((2-oxido-4H-benzo[d][1,3,2]dioxaphosphinin-2-yl)oxy)methyl)tetrahydrofuran-3-yl pentadecanoate]	< 1
CCCCCCCCCCCCCCCCC(=O)O[C@@H]1[C@@H](COP2(=O)OCc3cccc(C)c3O2)O[C@@H](n2ccc(N)nc2=O)C1(F)F (stereo partly drawn) [Compound 31, (2R,3R,5R)-5-(4-amino-2-oxopyrimidin-1(2H)-yl)-4,4-difluoro-2-(((8-methyl-2-oxido-4H-benzo[d][1,3,2]dioxaphosphinin-2-yl)oxy)methyl)tetrahydrofuran-3-yl heptadecanoate]	< 1
Nc1ccn([C@@H]2O[C@H](COP(=O)(Oc3ccccc3)Oc3ccccc3)[C@@H](OC(=O)c3ccccc3)C2(F)F)c(=O)n1 [Compound 25, (2R,3R,5R)-5-(4-amino-2-oxopyrimidin-1(2H)-yl)-2-(((diphenoxyphosphoryl)oxy)methyl)-4,4-difluorotetrahydrofuran-3-yl benzoate]	1000 to 25000
CCCCCCCCCCCCC(=O)O[C@@H]1[C@@H](COP2(=O)OCc3ccccc3O2)O[C@@H](n2ccc(N)nc2=O)C1(F)F (stereo partly drawn) [Compound 28, (2R,3R,5R)-5-(4-amino-2-oxopyrimidin-1(2H)-yl)-4,4-difluoro-2-(((2-oxido-4H-benzo[d][1,3,2]dioxaphosphinin-2-yl)oxy)methyl)tetrahydrofuran-3-yl tridecanoate]	< 1
CCCCCCCCCCCCCCCCC(=O)O[C@@H]1[C@@H](COP2(=O)OCc3ccccc3O2)O[C@@H](n2ccc(N)nc2=O)C1(F)F (stereo partly drawn) [Compound 30, (2R,3R,5R)-5-(4-amino-2-oxopyrimidin-1(2H)-yl)-4,4-difluoro-2-(((2-oxido-4H-benzo[d][1,3,2]dioxaphosphinin-2-yl)oxy)methyl)tetrahydrofuran-3-yl heptadecanoate]	< 1
CCCCCCCCCCCCCCCCC(=O)O[C@@H]1[C@@H](COP2(=O)OCc3c(C)cccc3O2)O[C@@H](n2ccc(N)nc2=O)C1(F)F (stereo partly drawn) [Compound 32, (2R,3R,5R)-5-(4-amino-2-oxopyrimidin-1(2H)-yl)-4,4-difluoro-2-(((5-methyl-2-oxido-4H-benzo[d][1,3,2]dioxaphosphinin-2-yl)oxy)methyl)tetrahydrofuran-3-yl heptadecanoate]	< 1
